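Results reflect a 48-hour exposure of cells in 96-well plates to compound at five concentrations. Here, GI50 denotes the concentration required for 50% inhibition of growth.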 Activity calls are given as the source filed them. No stated cut-off is given here; in the data, active = GI50 up to about 1.1 µM and inactive = higher.
Key:
Assay in all cases: NCI tumour cell line growth inhibition, 48 h
HL-60 = test system: HL-60
DMS-273 = test system: DMS-273
UO-31 = test system: UO-31
KM12 = test system: KM12
KM-20L2 = test system: KM-20L2
SF-295 = test system: SF-295
SF-268 = test system: SF-268
SN12C = test system: SN12C
HCT-116 = test system: HCT-116
DLD-1 = test system: DLD-1
MOLT-4 = test system: MOLT-4
SW-620 = test system: SW-620
M14 = test system: M14
SNB-19 = test system: SNB-19
SK-MEL-2 = test system: SK-MEL-2
SF-539 = test system: SF-539
SR = test system: SR
DMS-114 = test system: DMS-114
ACHN = test system: ACHN
HOP-92 = test system: HOP-92
SK-OV-3 = test system: SK-OV-3
COLO 205 = test system: COLO 205
A549 = test system: A549
K562 = test system: K562
LOX IMVI = test system: LOX IMVI
HCT-15 = test system: HCT-15
OVCAR-5 = test system: OVCAR-5
NCI-H226 = test system: NCI-H226
NCI-H460 = test system: NCI-H460
A498 = test system: A498
CCRF-CEM = test system: CCRF-CEM
LXFL 529 = test system: LXFL 529
SNB-75 = test system: SNB-75
CAKI-1 = test system: CAKI-1
RXF 631 = test system: RXF 631
HOP-18 = test system: HOP-18
UACC-62 = test system: UACC-62
TK-10 = test system: TK-10
NCI-H522 = test system: NCI-H522
IGROV-1 = test system: IGROV-1
U-251 = test system: U-251
M19-MEL = test system: M19-MEL
HOP-62 = test system: HOP-62
RPMI-8226 = test system: RPMI-8226
RXF 393 = test system: RXF 393
OVCAR-8 = test system: OVCAR-8
UACC-257 = test system: UACC-257
Malme-3M = test system: Malme-3M
SK-MEL-5 = test system: SK-MEL-5
OVCAR-4 = test system: OVCAR-4
HCC 2998 = test system: HCC 2998
HT-29 = test system: HT-29
SNB-78 = test system: SNB-78
786-0 = test system: 786-0
OVCAR-3 = test system: OVCAR-3
SK-MEL-28 = test system: SK-MEL-28
NCI-H23 = test system: NCI-H23
EKVX = test system: EKVX

With `CC1=C(C)CC2(SC1)C(=O)c1ccccc1C2=O` the GI50 (HL-60) was > 100 µM (inactive), the GI50 (DMS-273) was > 100 µM (inactive) and the GI50 (UO-31) was 66.1 µM (inactive). The GI50 (KM12) was > 100 µM (inactive), the GI50 (KM-20L2) was > 100 µM (inactive) and the GI50 (SF-295) was > 100 µM (inactive). The GI50 (SF-268) was > 100 µM (inactive), the GI50 (SN12C) was > 100 µM (inactive) and the GI50 (HCT-116) was > 100 µM (inactive). The GI50 (DLD-1) was > 100 µM (inactive), the GI50 (MOLT-4) was > 100 µM (inactive) and the GI50 (SW-620) was > 100 µM (inactive). For the same compound, the GI50 (M14) was > 100 µM (inactive), the GI50 (SNB-19) was > 100 µM (inactive) and the GI50 (SK-MEL-2) was > 100 µM (inactive). For the same compound, the GI50 (SF-539) was > 100 µM (inactive), the GI50 (SR) was > 100 µM (inactive) and the GI50 (DMS-114) was > 100 µM (inactive). The GI50 (ACHN) was > 100 µM (inactive), the GI50 (HOP-92) was 65.8 µM (inactive) and the GI50 (SK-OV-3) was > 100 µM (inactive). For the same compound, the GI50 (COLO 205) was > 100 µM (inactive), the GI50 (A549) was > 100 µM (inactive) and the GI50 (K562) was > 100 µM (inactive). The GI50 (LOX IMVI) was > 100 µM (inactive), the GI50 (HCT-15) was > 100 µM and the GI50 (OVCAR-5) was > 100 µM (inactive). The GI50 (NCI-H226) was > 100 µM (inactive), the GI50 (NCI-H460) was > 100 µM (inactive) and the GI50 (A498) was > 100 µM (inactive). The GI50 (CCRF-CEM) was 93.8 µM (inactive), the GI50 (LXFL 529) was > 100 µM (inactive) and the GI50 (SNB-75) was > 100 µM (inactive). The GI50 (CAKI-1) was 65.9 µM (inactive), the GI50 (RXF 631) was > 100 µM (inactive) and the GI50 (HOP-18) was > 100 µM (inactive). For the same compound, the GI50 (UACC-62) was > 100 µM (inactive), the GI50 (TK-10) was > 100 µM (inactive) and the GI50 (NCI-H522) was > 100 µM (inactive). The GI50 (IGROV-1) was > 100 µM (inactive), the GI50 (U-251) was > 100 µM (inactive) and the GI50 (M19-MEL) was > 100 µM (inactive). For the same compound, the GI50 (HOP-62) was > 100 µM (inactive), the GI50 (RPMI-8226) was > 100 µM (inactive) and the GI50 (RXF 393) was > 100 µM (inactive). For the same compound, the GI50 (OVCAR-8) was > 100 µM (inactive), the GI50 (UACC-257) was > 100 µM (inactive) and the GI50 (Malme-3M) was > 100 µM (inactive). For the same compound, the GI50 (SK-MEL-5) was > 100 µM (inactive), the GI50 (OVCAR-4) was > 100 µM (inactive) and the GI50 (HCC 2998) was > 100 µM (inactive). For the same compound, the GI50 (HT-29) was > 100 µM (inactive), the GI50 (SNB-78) was > 100 µM (inactive) and the GI50 (786-0) was > 100 µM (inactive).
With `CCCCCCCCCCCCCCC1OC(=O)c2ccccc21` (stereo not drawn) the GI50 (HL-60) was 15.6 µM (inactive), the GI50 (UO-31) was > 100 µM (inactive) and the GI50 (KM12) was 39.1 µM (inactive). The GI50 (KM-20L2) was 42.9 µM (inactive), the GI50 (SF-295) was > 100 µM (inactive) and the GI50 (SF-268) was > 100 µM (inactive). For the same compound, the GI50 (OVCAR-3) was 79.8 µM (inactive), the GI50 (SN12C) was 24.5 µM (inactive) and the GI50 (HCT-116) was 34.6 µM (inactive). The GI50 (DLD-1) was 71.4 µM (inactive), the GI50 (MOLT-4) was 36.7 µM (inactive) and the GI50 (SW-620) was 63.4 µM (inactive). The GI50 (M14) was > 100 µM (inactive), the GI50 (SNB-19) was > 100 µM (inactive) and the GI50 (SF-539) was > 100 µM (inactive). For the same compound, the GI50 (SR) was 42.5 µM (inactive), the GI50 (DMS-114) was 24 µM (inactive) and the GI50 (ACHN) was 43.5 µM (inactive). The GI50 (SK-MEL-28) was > 100 µM (inactive), the GI50 (SK-OV-3) was > 100 µM (inactive) and the GI50 (A549) was 60.3 µM (inactive). For the same compound, the GI50 (K562) was 30.6 µM (inactive), the GI50 (LOX IMVI) was 86.1 µM (inactive) and the GI50 (NCI-H23) was 43.8 µM (inactive). For the same compound, the GI50 (OVCAR-5) was 31.7 µM (inactive), the GI50 (NCI-H226) was 53.3 µM (inactive) and the GI50 (NCI-H460) was 60.8 µM (inactive). For the same compound, the GI50 (A498) was > 100 µM (inactive), the GI50 (CCRF-CEM) was 32.7 µM (inactive) and the GI50 (EKVX) was 39.9 µM (inactive). The GI50 (LXFL 529) was 77.1 µM (inactive), the GI50 (SNB-75) was > 100 µM (inactive) and the GI50 (RXF 631) was > 100 µM (inactive). The GI50 (HOP-18) was > 100 µM (inactive), the GI50 (UACC-62) was > 100 µM (inactive) and the GI50 (TK-10) was > 100 µM (inactive). The GI50 (IGROV-1) was 89.5 µM (inactive), the GI50 (U-251) was > 100 µM (inactive) and the GI50 (M19-MEL) was 85.7 µM (inactive). For the same compound, the GI50 (HOP-62) was > 100 µM (inactive), the GI50 (RPMI-8226) was 32.2 µM (inactive) and the GI50 (RXF 393) was 52 µM (inactive). For the same compound, the GI50 (OVCAR-8) was 55.8 µM (inactive), the GI50 (UACC-257) was 52.7 µM (inactive) and the GI50 (Malme-3M) was > 100 µM (inactive). The GI50 (OVCAR-4) was 66.7 µM (inactive), the GI50 (HT-29) was 35.8 µM (inactive) and the GI50 (SNB-78) was > 100 µM (inactive). The GI50 (786-0) was > 100 µM (inactive).
